Experiment [1] addresses T1, Prostaglandin G/H synthase 2 (Homo sapiens, UniProt P35354).
T1 sequence (P35354 whole entry): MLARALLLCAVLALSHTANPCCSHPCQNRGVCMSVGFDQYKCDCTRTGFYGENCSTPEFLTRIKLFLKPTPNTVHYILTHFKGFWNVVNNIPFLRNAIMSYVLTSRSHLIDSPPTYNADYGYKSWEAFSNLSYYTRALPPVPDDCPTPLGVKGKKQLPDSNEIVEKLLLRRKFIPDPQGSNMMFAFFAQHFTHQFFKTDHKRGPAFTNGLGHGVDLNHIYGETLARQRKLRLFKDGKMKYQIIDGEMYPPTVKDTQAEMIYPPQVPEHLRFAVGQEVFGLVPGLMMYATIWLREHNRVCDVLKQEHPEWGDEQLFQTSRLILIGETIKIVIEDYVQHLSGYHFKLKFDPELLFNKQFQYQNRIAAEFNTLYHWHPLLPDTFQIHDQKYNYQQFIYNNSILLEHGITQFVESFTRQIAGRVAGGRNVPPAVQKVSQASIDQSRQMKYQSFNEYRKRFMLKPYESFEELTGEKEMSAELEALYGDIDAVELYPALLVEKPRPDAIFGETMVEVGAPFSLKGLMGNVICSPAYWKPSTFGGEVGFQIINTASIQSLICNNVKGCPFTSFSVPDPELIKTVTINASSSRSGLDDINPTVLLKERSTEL
In words: Inhibition of COX2 by microplate reader.

The target in experiment [2] is Prostaglandin G/H synthase 1 (Homo sapiens, UniProt P23219). As to the kind of experiment: Inhibition of COX1 by microplate reader.
Sequence of Prostaglandin G/H synthase 1 (P23219 whole entry): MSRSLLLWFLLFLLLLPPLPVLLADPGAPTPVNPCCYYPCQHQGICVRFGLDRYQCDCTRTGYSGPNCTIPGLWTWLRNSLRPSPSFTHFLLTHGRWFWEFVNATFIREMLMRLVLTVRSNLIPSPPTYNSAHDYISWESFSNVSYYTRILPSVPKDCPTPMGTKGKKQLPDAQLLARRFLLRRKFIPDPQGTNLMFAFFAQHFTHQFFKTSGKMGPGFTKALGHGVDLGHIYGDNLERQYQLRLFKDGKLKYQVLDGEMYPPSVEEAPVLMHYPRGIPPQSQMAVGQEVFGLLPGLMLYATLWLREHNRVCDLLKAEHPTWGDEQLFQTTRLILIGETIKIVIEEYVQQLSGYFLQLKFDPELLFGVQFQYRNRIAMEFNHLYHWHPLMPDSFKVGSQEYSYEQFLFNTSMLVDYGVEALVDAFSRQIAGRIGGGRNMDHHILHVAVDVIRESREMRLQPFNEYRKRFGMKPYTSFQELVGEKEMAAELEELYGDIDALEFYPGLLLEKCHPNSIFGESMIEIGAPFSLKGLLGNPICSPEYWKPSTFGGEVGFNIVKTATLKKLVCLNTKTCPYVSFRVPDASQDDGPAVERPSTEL

Consider `C[C@@H]1O[C@@H](O[C@H]2[C@H](O[C@H]3CC[C@]4(C)[C@H]5CC=C6[C@@H]7CC(C)(C)CC[C@]7(C(=O)O[C@@H]7O[C@H](CO[C@@H]8O[C@H](CO)[C@@H](O[C@@H]9O[C@@H](C)[C@H](O)[C@@H](O)[C@H]9O)[C@H](O)[C@H]8O)[C@@H](O)[C@H](O)[C@H]7O)CC[C@@]6(C)[C@]5(C)CC[C@H]4C3(C)C)OC[C@H](O)[C@@H]2O)[C@H](O)[C@H](O)[C@H]1O` [HEDERASAPONIN B], for which the IC50 in experiment [1] and in experiment [2] was above 50 µM in each case.
On to `COc1ccc(/C=C/C(=O)O[C@H]2[C@H](O[C@H]3[C@H](O)[C@@H](O)[C@H](O[C@@H]4CO[C@@H](O[C@@H]5[C@@H](O)[C@H](C)O[C@@H](O[C@H]6[C@H](O[C@H]7CC[C@@]8(C)[C@@H](CC[C@]9(C)[C@@H]8CC=C8[C@@H]%10CC(C)(C)CC[C@]%10(C(=O)O[C@@H]%10O[C@H](CO[C@@H]%11O[C@H](CO)[C@@H](O[C@@H]%12O[C@@H](C)[C@H](O)[C@@H](O)[C@H]%12O)[C@H](O)[C@H]%11O)[C@@H](O)[C@H](O)[C@H]%10O)CC[C@]89C)[C@]7(C)CO)OC[C@@H](O)[C@@H]6O)[C@@H]5O)[C@H](O)[C@@H]4O)O[C@@H]3CO)O[C@H](CO)[C@@H](O)[C@@H]2O[C@@H]2O[C@H](CO[C@@H]3O[C@@H](C)[C@H](O)[C@@H](O)[C@H]3O)[C@@H](O[C@@H]3O[C@H](CO)[C@@H](O)[C@H](O)[C@H]3O)[C@H](O)[C@H]2O)cc1O` [CLEMATOCHINENOSIDE C], for which the IC50 was 6.1 µM in experiment [1] and 6.3 µM in experiment [2].
The corresponding values for `COc1ccc(/C=C/C(=O)O[C@H]2[C@H](O[C@H]3[C@H](O)[C@@H](O)[C@H](O[C@@H]4CO[C@@H](O[C@@H]5[C@@H](O)[C@H](C)O[C@@H](O[C@H]6[C@H](O[C@H]7CC[C@]8(C)[C@H]9CC=C%10[C@@H]%11CC(C)(C)CC[C@]%11(C(=O)O[C@@H]%11O[C@H](CO[C@@H]%12O[C@H](CO)[C@@H](O[C@@H]%13O[C@@H](C)[C@H](O)[C@@H](O)[C@H]%13O)[C@H](O)[C@H]%12O)[C@@H](O)[C@H](O)[C@H]%11O)CC[C@@]%10(C)[C@]9(C)CC[C@H]8C7(C)C)OC[C@H](O)[C@@H]6O)[C@@H]5O)[C@H](O)[C@@H]4O)O[C@@H]3CO)O[C@H](CO)[C@@H](O)[C@@H]2O[C@@H]2O[C@H](CO[C@@H]3O[C@@H](C)[C@H](O)[C@@H](O)[C@H]3O[C@@H]3O[C@H](CO)[C@@H](O)[C@H](O)[C@H]3O)[C@@H](O)[C@H](O)[C@H]2O)cc1O` [CLEMATERNOSIDE K] are 6.7 µM and 5.9 µM.
Consider `COc1ccc(/C=C/C(=O)O[C@H]2[C@H](O[C@H]3[C@H](O)[C@@H](O)[C@H](O[C@@H]4CO[C@@H](O[C@@H]5[C@@H](O)[C@H](C)O[C@@H](O[C@H]6[C@H](O[C@H]7CC[C@@]8(C)[C@@H](CC[C@]9(C)[C@@H]8CC=C8[C@@H]%10CC(C)(C)CC[C@]%10(C(=O)O[C@@H]%10O[C@H](CO[C@@H]%11O[C@H](CO)[C@@H](O[C@@H]%12O[C@@H](C)[C@H](O)[C@@H](O)[C@H]%12O)[C@H](O)[C@H]%11O)[C@@H](O)[C@H](O)[C@H]%10O)CC[C@]89C)[C@]7(C)CO)OC[C@@H](O)[C@@H]6O)[C@@H]5O)[C@H](O)[C@@H]4O)O[C@@H]3CO)O[C@H](CO)[C@@H](O)[C@@H]2O[C@@H]2O[C@H](CO)[C@@H](O)[C@H](O)[C@H]2O)cc1O` [CLEMATOCHINENOSIDE G], for which the IC50 in experiment [1] was 8.9 µM; in experiment [2], 7.5 µM.
For the compound `COc1ccc(/C=C/C(=O)O[C@H]2[C@H](O[C@H]3[C@H](O)[C@@H](O)[C@H](O[C@@H]4CO[C@@H](O[C@@H]5[C@@H](O)[C@H](C)O[C@@H](O[C@H]6[C@H](O[C@H]7CC[C@@]8(C)[C@@H](CC[C@]9(C)[C@@H]8CC=C8[C@@H]%10CC(C)(C)CC[C@]%10(C(=O)O[C@@H]%10O[C@H](CO[C@@H]%11O[C@H](CO)[C@@H](O[C@@H]%12O[C@@H](C)[C@H](O)[C@@H](O)[C@H]%12O)[C@H](O)[C@H]%11O)[C@@H](O)[C@H](O)[C@H]%10O)CC[C@]89C)[C@]7(C)CO)OC[C@H](O)[C@@H]6O)[C@@H]5O)[C@H](O)[C@@H]4O)O[C@@H]3CO)O[C@H](CO)[C@@H](O)[C@@H]2O[C@@H]2O[C@H](CO[C@@H]3O[C@@H](C)[C@H](O)[C@@H](O)[C@H]3O)[C@@H](O)[C@H](O)[C@H]2O)cc1O` [CLEMATERNOSIDE D], the IC50 in experiment [1] was 9 µM; in experiment [2] it was 8.8 µM.
With `COc1ccc(/C=C/C(=O)O[C@@H]2[C@@H](O)[C@H](O[C@H]3[C@H](O)[C@@H](O)[C@H](O[C@@H]4CO[C@@H](O[C@@H]5[C@@H](O)[C@H](C)O[C@@H](O[C@H]6[C@H](O[C@H]7CC[C@]8(C)[C@H]9CC=C%10[C@@H]%11CC(C)(C)CC[C@]%11(C(=O)O[C@@H]%11O[C@H](CO[C@@H]%12O[C@H](CO)[C@@H](O[C@@H]%13O[C@@H](C)[C@H](O)[C@@H](O)[C@H]%13O)[C@H](O)[C@H]%12O)[C@@H](O)[C@H](O)[C@H]%11O)CC[C@@]%10(C)[C@]9(C)CC[C@H]8C7(C)C)OC[C@H](O)[C@@H]6O)[C@@H]5O)[C@H](O)[C@@H]4O)O[C@@H]3CO)O[C@H](CO)[C@H]2O)cc1O` [CLEMATERNOSIDE B], the IC50 is 7.6 µM in experiment [1] and 8 µM in experiment [2].
As for `C[C@@H]1O[C@@H](O[C@H]2[C@H](O)[C@@H](O)[C@H](OC[C@H]3O[C@@H](OC(=O)[C@]45CCC(C)(C)C[C@H]4C4=CC[C@@H]6[C@@]7(C)CC[C@H](O[C@@H]8OC[C@H](O)[C@H](O)[C@H]8O)C(C)(C)[C@@H]7CC[C@@]6(C)[C@]4(C)CC5)[C@H](O)[C@@H](O)[C@@H]3O)O[C@@H]2CO)[C@H](O)[C@H](O)[C@H]1O` [CIWUJIANOSIDE C3], the IC50 in experiment [1] and in experiment [2] was above 50 µM throughout.
`COc1ccc(/C=C/C(=O)O[C@@H]2[C@@H](O)[C@H](O[C@H]3[C@H](O)[C@@H](O)[C@H](O[C@@H]4CO[C@@H](O[C@@H]5[C@@H](O)[C@H](C)O[C@@H](O[C@H]6[C@H](O[C@H]7CC[C@@]8(C)[C@@H](CC[C@]9(C)[C@@H]8CC=C8[C@@H]%10CC(C)(C)CC[C@]%10(C(=O)O[C@@H]%10O[C@H](CO[C@@H]%11O[C@H](CO)[C@@H](O[C@@H]%12O[C@@H](C)[C@H](O)[C@@H](O)[C@H]%12O)[C@H](O)[C@H]%11O)[C@@H](O)[C@H](O)[C@H]%10O)CC[C@]89C)[C@]7(C)CO)OC[C@@H](O)[C@@H]6O)[C@@H]5O)[C@H](O)[C@@H]4O)O[C@@H]3CO)O[C@H](CO)[C@H]2O)cc1O` [CLEMATOCHINENOSIDE D]: the results for the IC50 in experiment [1] and in experiment [2] were 7.8 µM and 8.8 µM, respectively.
Consider `C[C@@H]1O[C@@H](O[C@H]2[C@H](O)[C@@H](O)[C@H](OC[C@H]3O[C@@H](OC(=O)[C@]45CCC(C)(C)C[C@H]4C4=CC[C@@H]6[C@@]7(C)CC[C@H](O)[C@@](C)(CO)[C@@H]7CC[C@@]6(C)[C@]4(C)CC5)[C@H](O)[C@@H](O)[C@@H]3O)O[C@@H]2CO)[C@H](O)[C@H](O)[C@H]1O` [KIZUTA CIRENSENOSIDE O SAPONIN K3], for which the 50% inhibitory concentration (IC50) in experiment [1] and in experiment [2] was above 50 µM throughout.

For the origin of these results see ChEMBL document CHEMBL1177732, “Triterpene saponins from Clematis chinensis and their potential anti-inflammatory activity” (J Nat Prod, 2010).
